# Molecular target: T1, human JAK2 (Homo sapiens, UniProt O60674)
# T1 construct: JAK2 (a.a. 828-1132); His tag (N); made in house; host or cells: insect cells (baculovirus)
# Test: In vitro JAK kinase assay (HTRF, phosphorylation of biotinylated peptide)
# Assay type: biochemical
# Conditions: catalytic domain a.a. 828-1132, 30 μM ATP, 500 nM peptide, room temperature 1 hr; read-out: JAK-2 IC50
# In short: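 IC50 from HTRF detection (Eu-Py20 antibody, SA-APC) of biotinylated-peptide phosphorylation (500 nM), run 1 h at RT. Enzyme: N-His human JAK2 kinase domain a.a. 828-1132 from insect cells; ATP 30 μM; buffer 50 mM Tris pH 7.8 with NaCl, DTT, BSA.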
# T1 sequence (O60674 828-1132): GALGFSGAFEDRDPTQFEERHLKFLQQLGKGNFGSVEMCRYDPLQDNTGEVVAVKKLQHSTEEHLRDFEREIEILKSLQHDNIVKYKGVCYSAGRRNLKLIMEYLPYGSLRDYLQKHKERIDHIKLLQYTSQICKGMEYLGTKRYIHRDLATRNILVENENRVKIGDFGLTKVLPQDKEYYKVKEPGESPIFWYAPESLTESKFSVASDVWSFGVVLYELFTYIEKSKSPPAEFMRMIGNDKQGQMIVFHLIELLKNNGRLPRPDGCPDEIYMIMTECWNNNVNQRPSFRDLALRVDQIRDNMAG
row,SMILES,IC50 [nM]
1,"Cc1cc(CNC(=O)c2ccc(Nc3nccc(-c4cnn(C5(CC#N)CC(C#N)C5)c4)n3)cc2)no1 (single isomer, unassigned) [Example 291, 4-(4-(1-(3-cyano-1-(cyanomethyl)cyclobutyl)-1H-pyrazol-4-yl)pyrimidin-2-ylamino)-N-((5-methylisoxazol-3-yl)methyl)benzamide]",< 100
2,"N#CCC1(n2cc(-c3ccnc(Nc4ccc(C(=O)N5CCC5)cc4)n3)cn2)CC(C#N)C1 (single isomer, unassigned) [Example 292, 3-(4-(2-(4-(azetidine-1-carbonyl)phenylamino)pyrimidin-4-yl)-1H-pyrazol-1-yl)-3-(cyanomethyl)cyclobutanecarbonitrile]",< 100
3,"CN1CCN(C(=O)c2ccc(Nc3nccc(-c4cnn(C5(CC#N)CC(C#N)C5)c4)n3)cc2)CC1 (single isomer, unassigned) [Example 293, 3-(cyanomethyl)-3-(4-(2-(4-(4-methylpiperazine-1-carbonyl)phenylamino)pyrimidin-4-yl)-1H-pyrazol-1-yl)cyclobutanecarbonitrile]",< 100
4,"N#CCC1(n2cc(-c3ccnc(Nc4ccc(C(=O)N5CC[C@H](F)C5)cc4)n3)cn2)CC(C#N)C1 (single isomer, unassigned) [Example 294]",< 100
5,"COC1CCN(C(=O)c2ccc(Nc3nccc(-c4cnn(C5(CC#N)CC(C#N)C5)c4)n3)cc2)CC1 (single isomer, unassigned) [Example 295, 3-(cyanomethyl)-3-(4-(2-(4-(4-methoxypiperidine-1-carbonyl)phenylamino)pyrimidin-4-yl)-1H-pyrazol-1-yl)cyclobutanecarbonitrile]",< 100
6,"CO[C@H]1CCN(C(=O)c2ccc(Nc3nccc(-c4cnn(C5(CC#N)CC(C#N)C5)c4)n3)cc2)C1 (single isomer, unassigned) [Example 296]",< 100
7,"N#CCC1(n2cc(-c3ccnc(Nc4cccc(-c5cnco5)c4)n3)cn2)CN(S(=O)(=O)C2CC2)C1 [Example 18, 2-(1-(cyclopropylsulfonyl)-3-(4-(2-(3-(oxazol-5-yl)phenylamino)pyrimidin-4-yl)-1H-pyrazol-1-yl)azetidin-3-yl)acetonitrile]",< 100
8,"CC(=O)Nc1ccc(Nc2nccc(-c3cnn(C4(CC#N)CN(S(=O)(=O)C5CC5)C4)c3)n2)cc1 [Example 19, N-(4-(4-(1-(3-(cyanomethyl)-1-(cyclopropylsulfonyl)azetidin-3-yl)-1H-pyrazol-4-yl)pyrimidin-2-ylamino)phenyl)acetamide]",< 100
9,"Cc1nccc(-c2cccc(Nc3nccc(-c4cnn(C5(CC#N)CN(S(=O)(=O)C6CC6)C5)c4)n3)c2)n1 [Example 20, 2-(1-(cyclopropylsulfonyl)-3-(4-(2-(3-(2-methylpyrimidin-4-yl)phenylamino)pyrimidin-4-yl)-1H-pyrazol-1-yl)azetidin-3-yl)acetonitrile]",< 100
10,"N#CCC1(n2cc(-c3ccnc(Nc4ccc(-c5cnco5)cc4)n3)cn2)CN(S(=O)(=O)C2CC2)C1 [Example 21, 2-(1-(cyclopropylsulfonyl)-3-(4-(2-(4-(oxazol-5-yl)phenylamino)pyrimidin-4-yl)-1H-pyrazol-1-yl)azetidin-3-yl)acetonitrile]",< 100
11,"N#CCC1(n2cc(-c3ccnc(Nc4ccc(-n5cccn5)cc4)n3)cn2)CCN(S(=O)(=O)C2CC2)CC1 [Example 28, 2-(4-(4-(2-(4-(1H-pyrazol-1-yl)phenylamino)pyrimidin-4-yl)-1H-pyrazol-1-yl)-1-(cyclopropylsulfonyl)piperidin-4-yl)acetonitrile]",< 100
12,"N#CCC1(n2cc(-c3ccnc(Nc4ccc(N5CCOCC5)cc4)n3)cn2)CCN(S(=O)(=O)C2CC2)CC1 [Example 29, 2-(1-(cyclopropylsulfonyl)-4-(4-(2-(4-morpholinophenylamino)pyrimidin-4-yl)-1H-pyrazol-1-yl)piperidin-4-yl)acetonitrile]",< 100
13,"N#CCC1(n2cc(-c3ccnc(Nc4ccc(C(N)=O)cc4)n3)cn2)CCN(S(=O)(=O)C2CC2)CC1 [Example 30, 4-(4-(1-(4-(cyanomethyl)-1-(cyclopropylsulfonyl)piperidin-4-yl)-1H-pyrazol-4-yl)pyrimidin-2-ylamino)benzamide]",< 100
14,"N#CCC1(n2cc(-c3ccnc(Nc4ccc(C(=O)NCCO)cc4)n3)cn2)CCN(S(=O)(=O)C2CC2)CC1 [Example 31, 4-(4-(1-(4-(cyanomethyl)-1-(cyclopropylsulfonyl)piperidin-4-yl)-1H-pyrazol-4-yl)pyrimidin-2-ylamino)-N-(2-hydroxyethyl)benzamide]",< 100
15,"CN(C)C(=O)c1ccc(Nc2nccc(-c3cnn(C4(CC#N)CCN(S(=O)(=O)C5CC5)CC4)c3)n2)cc1 [Example 32, 4-(4-(1-(4-(cyanomethyl)-1-(cyclopropylsulfonyl)piperidin-4-yl)-1H-pyrazol-4-yl)pyrimidin-2-ylamino)-N,N-dimethylbenzamide]",< 100
16,"N#CCC1(n2cc(-c3ccnc(Nc4ccc(N5CCOCC5)cc4)n3)cn2)CN(S(=O)(=O)C2CC2)C1 [Example 93, 2-(1-(cyclopropylsulfonyl)-3-(4-(2-(4-morpholinophenylamino)pyrimidin-4-yl)-1H-pyrazol-1-yl)azetidin-3-yl)acetonitrile]",< 100

# Second part, the compound after the results:
row,IC50 [nM],SMILES
1,< 100,"CC(=O)N1CCN(C(=O)c2ccc(Nc3nccc(-c4cnn(C5(CC#N)CC(C#N)C5)c4)n3)cc2)CC1 (single isomer, unassigned) [Example 298, 3-(4-(2-(4-(4-acetylpiperazine-1-carbonyl)phenylamino)pyrimidin-4-yl)-1H-pyrazol-1-yl)-3-(cyanomethyl)cyclobutanecarbonitrile]"
2,< 100,"N#CCC1(n2cc(-c3ccnc(Nc4ccc(C(=O)N5CCC(O)CC5)cc4)n3)cn2)CC(C#N)C1 (single isomer, unassigned) [Example 301, 3-(cyanomethyl)-3-(4-(2-(4-(4-hydroxypiperidine-1-carbonyl)phenylamino)pyrimidin-4-yl)-1H-pyrazol-1-yl)cyclobutanecarbonitrile]"
3,< 100,"N#CCC1(n2cc(-c3ccnc(Nc4ccc(OCCN5CCCC5)cc4)n3)cn2)CC(C#N)C1 (single isomer, unassigned) [Example 307, 3-(cyanomethyl)-3-[4-(2-{[4-(2-pyrrolidin-1-ylethoxy)phenyl]amino}pyrimidin-4-yl)-1H-pyrazol-1-yl]cyclobutanecarbonitrile]"
4,< 100,"N#CCC1(n2cc(-c3ccnc(Nc4ccc(N5CCCCC5=O)cc4)n3)cn2)CC(C#N)C1 (single isomer, unassigned) [Example 336, 3-(cyanomethyl)-3-[4-(2-{[4-(2-oxopiperidin-1-yl)phenyl]amino}pyrimidin-4-yl)-1H-pyrazol-1-yl]cyclobutanecarbonitrile]"
5,< 100,"N#CCC1(n2cc(-c3ccnc(Nc4ccc(N5CCCOC5=O)cc4)n3)cn2)CC(C#N)C1 (single isomer, unassigned) [Example 337, 3-(cyanomethyl)-3-[4-(2-{[4-(2-oxo-1,3-oxazinan-3-yl)phenyl]amino}pyrimidin-4-yl)-1H-pyrazol-1-yl]cyclobutanecarbonitrile]"
6,< 100,"N#CCC1(n2cc(-c3ccnc(Nc4ccc(N5CCOCC5=O)cc4)n3)cn2)CC(C#N)C1 (single isomer, unassigned) [Example 338, 3-(cyanomethyl)-3-[4-(2-{[4-(3-oxomorpholin-4-yl)phenyl]amino}pyrimidin-4-yl)-1H-pyrazol-1-yl]cyclobutanecarbonitrile]"
7,< 100,"N#CCC1(n2cc(-c3ccnc(Nc4ccc(N5CCOC5=O)cc4)n3)cn2)CC(C#N)C1 (single isomer, unassigned) [Example 339, 3-(cyanomethyl)-3-[4-(2-{[4-(2-oxo-1,3-oxazolidin-3-yl)phenyl]amino}pyrimidin-4-yl)-1H-pyrazol-1-yl]cyclobutanecarbonitrile]"
8,< 100,"N#CCC1(n2cc(-c3ccnc(Nc4ccc(N5CCCC5=O)cc4)n3)cn2)CC(C#N)C1 (single isomer, unassigned) [Example 340, 3-(cyanomethyl)-3-[4-(2-{[4-(2-oxopyrrolidin-1-yl)phenyl]amino}pyrimidin-4-yl)-1H-pyrazol-1-yl]cyclobutanecarbonitrile]"
9,< 100,"N#CCC1(n2cc(-c3ccnc(Nc4ccc(-n5cccn5)cc4)n3)cn2)CC(C#N)C1 (single isomer, unassigned) [Example 341, 3-(cyanomethyl)-3-[4-(2-{[4-(1H-pyrazol-1-yl)phenyl]amino}pyrimidin-4-yl)-1H-pyrazol-1-yl]cyclobutanecarbonitrile]"
10,< 100,"N#CCC1(n2cc(-c3ccnc(Nc4ccc(-c5cnco5)cc4)n3)cn2)CC(C#N)C1 (single isomer, unassigned) [Example 342, 3-(cyanomethyl)-3-[4-(2-{[4-(1,3-oxazol-5-yl)phenyl]amino}pyrimidin-4-yl)-1H-pyrazol-1-yl]cyclobutanecarbonitrile]"
11,< 100,"N#CCC1(n2cc(-c3ccnc(Nc4cccc(-c5cnco5)c4)n3)cn2)CC(C#N)C1 (single isomer, unassigned) [Example 343, 3-(cyanomethyl)-3-[4-(2-{[3-(1,3-oxazol-5-yl)phenyl]amino}pyrimidin-4-yl)-1H-pyrazol-1-yl]cyclobutanecarbonitrile]"
12,< 100,"N#CCC1(n2cc(-c3ccnc(Nc4ccc(S(=O)(=O)N5CCOCC5)cc4)n3)cn2)CC(C#N)C1 (single isomer, unassigned) [Example 344, 3-(cyanomethyl)-3-[4-(2-{[4-(morpholin-4-ylsulfonyl)phenyl]amino}pyrimidin-4-yl)-1H-pyrazol-1-yl]cyclobutanecarbonitrile]"
13,< 100,"N#CCC1(n2cc(-c3ccnc(Nc4cccc(N5CCCC5=O)c4)n3)cn2)CC(C#N)C1 (single isomer, unassigned) [Example 348, 3-(cyanomethyl)-3-[4-(2-{[3-(2-oxopyrrolidin-1-yl)phenyl]amino}pyrimidin-4-yl)-1H-pyrazol-1-yl]cyclobutanecarbonitrile]"

# From patent US8309718B2, “4-pyrazolyl-N-arylpyrimidin-2-amines and 4-pyrazolyl-N-heteroarylpyrimidin-2-amines as janus kinase inhibitors” (Incyte Corporation, priority 2007, dated 2012)
